Laboratory results taken from patent US9856216B2, “Compounds as TNIK, IKKε and TBK1 inhibitors and pharmaceutical composition comprising same” (GREEN CROSS CORPORATION, priority 2015, dated 2018).
Structures can show the parent of a compound that is named as a salt.

The compounds below were run against T1, TNIK (Homo sapiens, UniProt Q9UKE5) (assay: ADP-Glo Kinase Assay, inhibition activity on TNIK). Conditions: not given.
T1 construct: purchased Promega V4158
T1 sequence (Q9UKE5 1-367 limits assumed): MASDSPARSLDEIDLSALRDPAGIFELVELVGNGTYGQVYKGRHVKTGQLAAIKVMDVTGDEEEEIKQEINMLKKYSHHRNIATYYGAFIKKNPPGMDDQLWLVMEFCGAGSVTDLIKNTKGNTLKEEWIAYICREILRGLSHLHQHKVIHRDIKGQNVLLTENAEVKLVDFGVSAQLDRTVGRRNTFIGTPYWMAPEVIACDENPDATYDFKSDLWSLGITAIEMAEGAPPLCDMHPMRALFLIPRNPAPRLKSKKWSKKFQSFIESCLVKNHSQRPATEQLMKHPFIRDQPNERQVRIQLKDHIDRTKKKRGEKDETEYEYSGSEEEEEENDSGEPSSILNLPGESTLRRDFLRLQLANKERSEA
Type: biochemical
Procedure: The inhibition activities on TNIK, IKKε and TBK1 were measured by a luminometer, TNIK/IKKε/TBK1 Kinase Enzyme System (Promega, Ca# V4158; Invitrogen, PR8031B, Promega, Ca# V3991) and ADP-Glo Kinase Assay using ADP-Glo™ Kinase Analysis Kit (Promega, Ca# V9101) and a kinase reaction buffer [40 mM Tris(pH 7.5), 20 mM MgCl2, 0.1 mg/mL BSA] in accordance with the manufacturer's protocol.
For `CN(C)CCCNc1ccc(C(=O)Nc2ccc(-c3cccc(F)c3F)c3c2C(=O)NC3)cc1` [Example 368, N-(7-(2,3-difluorophenyl)-3-oxoisoindolin-4-yl)-4-((3-(dimethylamino)propyl)amino)benzamide], the “TNIK (μM)” value was “Insoluble”.
For `O=C(Nc1ccc(-c2cccs2)c2c1C(=O)NC2)c1ccc(NCCO)cc1` [Example 371, 4-((2-Hydroxyethyl)amino)-N-(3-oxo-7-(thiophen-2-yl)isoindolin-4-yl)benzamide], the “TNIK (μM)” value was “Insoluble”.

Same assay, conditions: read-out: TNIK
In the case of `O=C(Nc1ccc(-c2cccc(F)c2F)c2c1C(=O)NC2)c1ccc(NCCN2CCOCC2)cc1` [Example 359, N-(7-(2,3-difluorophenyl)-3-oxoisoindolin-4-yl)-4-((2-morpholinoethyl)amino)benzamide], the IC50 is reported as 170 nM.
For `O=C(Nc1ccc(-c2ccccc2)c2c1C(=O)NC2)c1ccc(NCCN2CCCCC2)cc1` [Example 360, N-(3-oxo-7-phenylisoindolin-4-yl)-4-((2-(piperidin-1-yl)ethyl)amino)benzamide], the IC50 was 320 nM.
In the case of `COc1ccccc1-c1ccc(NC(=O)c2ccc(NCCN3CCCCC3)cc2)c2c1CNC2=O` [Example 361, N-(7-(2-methoxyphenyl)-3-oxoisoindolin-4-yl)-4-((2-(piperidin-1-yl)ethyl)amino)benzamide], the IC50 is reported as 170 nM.
`CN(C)CCNc1ccc(C(=O)Nc2ccc(-c3ccccc3)c3c2C(=O)NC3)cc1` [Example 362, 4-((2-(Dimethylamino)ethyl)amino)-N-(3-oxo-7-phenylisoindolin-4-yl)benzamide] showed an IC50 of 490 nM.
`O=C(Nc1ccc(-c2ccccc2)c2c1C(=O)NC2)c1ccc(NCCCN2CCCC2)cc1` [Example 363, N-(3-oxo-7-phenylisoindolin-4-yl)-4-((3-(pyrrolidin-1-yl)propyl)amino)benzamide] showed an IC50 of 330 nM.
`O=C(Nc1ccc(-c2cccc(F)c2F)c2c1C(=O)NC2)c1ccc(NCCN2CCCC2)cc1` [Example 364, N-(7-(2,3-difluorophenyl)-3-oxoisoindolin-4-yl)-4-((2-(pyrrolidin-1-yl)ethyl)amino)benzamide] gave an IC50 of 180 nM.
`O=C(Nc1ccc(-c2cccc(F)c2F)c2c1C(=O)NC2)c1ccc(NCCN2CCCC2)cc1` [Example 365, N-(7-(2,3-difluorophenyl)-3-oxoisoindolin-4-yl)-4-((2-(pyrrolidin-1-yl)ethyl)amino)benzamide hydrochloride] showed an IC50 of 170 nM.
Work on `O=C(Nc1ccc(-c2cccc(F)c2F)c2c1C(=O)NC2)c1ccc(NCCCN2CCCC2)cc1` [Example 366, N-(7-(2,3-difluorophenyl)-3-oxoisoindolin-4-yl)-4-((3-(pyrrolidin-1-yl)propyl)amino)benzamide hydrochloride] yielded an IC50 of 170 nM.
`CN(C)CCNc1ccc(C(=O)Nc2ccc(-c3cccc(F)c3F)c3c2C(=O)NC3)cc1` [Example 367, N-(7-(2,3-difluorophenyl)-3-oxoisoindolin-4-yl)-4-((2-(dimethylamino)ethyl)amino)benzamide] showed an IC50 of 280 nM.
For `O=C(Nc1ccc(-c2ccccc2)c2c1C(=O)NC2)c1ccc(NCCN2CCCCCC2)cc1` [Example 369, 4-((2-(Azepan-1-yl)ethyl)amino)-N-(3-oxo-7-phenylisoindolin-4-yl)benzamide], the IC50 was 560 nM.
`O=C(Nc1ccc(-c2ccccc2)c2c1C(=O)NC2)c1ccc(NCCCN2CCCCC2)cc1` [Example 370, N-(3-oxo-7-phenylisoindolin-4-yl)-4-((3-(piperidin-1-yl)propyl)amino)benzamide] gave an IC50 of 510 nM.
Work on `COCCNc1ccc(C(=O)Nc2ccc(-c3cccs3)c3c2C(=O)NC3)cc1` [Example 372, 4-((2-Methoxyethyl)amino)-N-(3-oxo-7-(thiophen-2-yl)isoindolin-4-yl)benzamide] yielded an IC50 of 1360 nM.
`CN(C)CCNc1ccc(C(=O)Nc2ccc(-c3cccs3)c3c2C(=O)NC3)cc1` [Example 373, 4-((2-(Dimethylamino)ethyl)amino)-N-(3-oxo-7-(thiophen-2-yl)isoindolin-4-yl)benzamide] showed an IC50 of 400 nM.
`O=C(Nc1ccc(-c2cccs2)c2c1C(=O)NC2)c1ccc(NCCN2CCCCC2)cc1` [Example 374, N-(3-oxo-7-(thiophen-2-yl)isoindolin-4-yl)-4-((2-(piperidin-1-yl)ethyl)amino)benzamide] gave an IC50 of 480 nM.
For `O=C(Nc1ccc(-c2cccs2)c2c1C(=O)NC2)c1ccc(NCCN2CCOCC2)cc1` [Example 375, 4-((2-Morpholinoethyl)amino)-N-(3-oxo-7-(thiophen-2-yl)isoindolin-4-yl) benzamide], the IC50 was 540 nM.
Compound `O=C(Nc1ccc(-c2cccc3ncoc23)c2c1C(=O)NC2)c1ccc(NCCN2CCCC2)cc1` [Example 376, N-(7-(benzo[d]oxazol-7-yl)-3-oxoisoindolin-4-yl)-4-((2-(pyrrolidin-1-yl)ethyl)amino)benzamide] has an IC50 of 72 nM.
With `Cc1nc2cccc(-c3ccc(NC(=O)c4ccc(NCCN5CCCC5)cc4)c4c3CNC4=O)c2o1` [Example 377, N-(7-(2-methylbenzo[d]oxazol-7-yl)-3-oxoisoindolin-4-yl)-4-((2-(pyrrolidin-1-yl)ethyl)amino)benzamide] the IC50 was 360 nM.
`CN1CCN(CCNc2ccc(C(=O)Nc3ccc(-c4cccs4)c4c3C(=O)NC4)cc2)CC1` [Example 378, 4-((2-(4-Methylpiperazin-1-yl)ethyl)amino)-N-(3-oxo-7-(thiophen-2-yl)isoindolin-4-yl)benzamide] gave an IC50 of 130 nM.
For `CN1CCN(CCNc2ccc(C(=O)Nc3ccc(-c4ccccc4)c4c3C(=O)NC4)cc2)CC1` [Example 379, 4-((2-(4-Methylpiperazin-1-yl)ethyl)amino)-N-(3-oxo-7-phenylisoindolin-4-yl)benzamide], the IC50 was 350 nM.
`O=C(Nc1ccc(-c2ccccc2)c2c1C(=O)NC2)c1ccc(NCCO)cc1` [Example 380, 4-((2-Hydroxyethyl)amino)-N-(3-oxo-7-phenylisoindolin-4-yl) benzamide] gave an IC50 of 230 nM.
`CN(C)CCCNc1ccc(C(=O)Nc2ccc(-c3ccccc3)c3c2C(=O)NC3)cc1` [Example 381, 4-((3-(Dimethylamino)propyl)amino)-N-(3-oxo-7-phenylisoindolin-4-yl) benzamide] gave an IC50 of 310 nM.
For `O=C(Nc1ccc(-c2ccccc2)c2c1C(=O)NC2)c1ccc(NCCCO)cc1` [Example 382, 4-((3-Hydroxypropyl)amino)-N-(3-oxo-7-phenylisoindolin-4-yl) benzamide], the IC50 was 330 nM.
In the case of `O=C(Nc1ccc(-c2ccccc2)c2c1C(=O)NC2)c1ccc(NCCCCO)cc1` [Example 383, 4-((4-Hydroxybutyl)amino)-N-(3-oxo-7-phenylisoindolin-4-yl) benzamide], the IC50 is reported as 380 nM.
In the case of `O=C(Nc1ccc(-c2cc3ccccc3o2)c2c1C(=O)NC2)c1ccc(NCCN2CCCC2)cc1` [Example 384, N-(7-(benzofuran-2-yl)-3-oxoisoindolin-4-yl)-4-((2-(pyrrolidin-1-yl)ethyl)amino)benzamide], the IC50 is reported as 1110 nM.
Work on `O=C(Nc1ccc(-c2ccc3ncccc3c2)c2c1C(=O)NC2)c1ccc(NCCN2CCCC2)cc1` [Example 385, N-(3-oxo-7-(quinolin-6-yl)isoindolin-4-yl)-4-((2-(pyrrolidin-1-yl)ethyl)amino)benzamide] yielded an IC50 of 780 nM.
Compound `O=C(Nc1ccc(-c2cccc3ncccc23)c2c1C(=O)NC2)c1ccc(NCCN2CCCC2)cc1` [Example 386, N-(3-oxo-7-(quinolin-5-yl)isoindolin-4-yl)-4-((2-(pyrrolidin-1-yl)ethyl)amino)benzamide] has an IC50 of 99 nM.
`O=C(Nc1ccc(-c2ccnc3ccccc23)c2c1C(=O)NC2)c1ccc(NCCN2CCCC2)cc1` [Example 387, N-(3-oxo-7-(quinolin-4-yl)isoindolin-4-yl)-4-((2-(pyrrolidin-1-yl)ethyl)amino)benzamide] gave an IC50 of 33 nM.
`O=C(Nc1ccc(C(=O)O)c2c1C(=O)NC2)c1ccc(F)cc1` [Example 388, 7-(4-Fluorobenzamido)-1-oxoisoindoline-4-carboxylic acid] showed an IC50 of 3890 nM.
With `CNC(=O)c1ccc(NC(=O)c2ccc(F)cc2)c2c1CNC2=O` [Example 389, 7-(4-Fluorobenzamido)-N-methyl-1-oxoisoindoline-4-carboxamide] the IC50 was > 20000 nM.
`CNC(=O)c1ccc(NC(=O)c2ccc(NCCN3CCCC3)cc2)c2c1CNC2=O` [Example 390, N-methyl-1-oxo-7-(4-((2-(pyrrolidin-1-yl)ethyl)amino)benzamido)isoindoline-4-carboxamide] was tested, and the IC50 was 3870 nM.
With `O=C(Nc1ccc(C(=O)N2CCCC2)c2c1C(=O)NC2)c1ccc(F)cc1` [Example 391, 4-Fluoro-N-(3-oxo-7-(pyrrolidine-1-carbonyl)isoindolin-4-yl) benzamide] the IC50 was > 20000 nM.
For `O=C(Nc1ccc(C(=O)N2CCCC2)c2c1C(=O)NC2)c1ccc(NCCN2CCCC2)cc1` [Example 392, N-(3-oxo-7-(pyrrolidine-1-carbonyl)isoindolin-4-yl)-4-((2-(pyrrolidin-1-yl)ethyl)amino)benzamide], the IC50 was > 20000 nM.
Compound `CC(C)(O)c1ccc(NC(=O)c2ccc(F)cc2)c2c1CNC2=O` [Example 393, 4-Fluoro-N-(7-(2-hydroxypropan-2-yl)-3-oxoisoindolin-4-yl) benzamide] has an IC50 of 2570 nM.
With `CC(C)(O)c1ccc(NC(=O)c2ccc(NCCN3CCCC3)cc2)c2c1CNC2=O` [Example 394, N-(7-(2-hydroxypropan-2-yl)-3-oxoisoindolin-4-yl)-4-((2-(pyrrolidin-1-yl)ethyl)amino)benzamide] the IC50 was 5440 nM.
With `O=C(Nc1ccc(O)c2c1C(=O)NC2)c1ccc(F)cc1` [Example 396, 4-Fluoro-N-(7-hydroxy-3-oxoisoindolin-4-yl)benzamide] the IC50 was 1290 nM.
`CC(=O)Nc1ccc(C(=O)Nc2ccc(-c3ccccc3)c3c2C(=O)NCC3)cc1` [Example 397, 4-Acetamido-N-(1-oxo-5-phenyl-1,2,3,4-tetrahydroisoquinolin-8-yl)benzamide] showed an IC50 of 5400 nM.
`O=C(Nc1ccc(-c2ccccc2)c2c1C(=O)NCC2)c1ccccc1` [Example 398, N-(1-oxo-5-phenyl-1,2,3,4-tetrahydroisoquinolin-8-yl) benzamide] was tested, and the IC50 was 3300 nM.
